Results published in patent US20200000976A1, “A MEDICAL IMPLANT AND A METHOD OF COATING A MEDICAL IMPLANT” (priority 2016, published 2020).

Key:
[1] = system: osteoblasts derived from trabecular bone; conditions: cited from earlier work
[2] = binding and release of antimicrobial silver on Ti, PCL and PEEK (previous in house work); type: physicochemical
[3] = Palacos cement; cited from earlier work
[4] = Palacos cement; cited from earlier work; remark: listed apart in the source

Compound | low levels with no or little effect on the replication of osteoblasts [1] | elution from cement at low doses [3] | effects at high concentrations [4] | further results
CN[C@H](CC(C)C)C(=O)N[C@H]1C(=O)N[C@@H](CC(N)=O)C(=O)N[C@H]2C(=O)N[C@H]3C(=O)N[C@H](C(=O)N[C@H](C(=O)O)c4cc(O)cc(O)c4-c4cc3ccc4O)[C@H](O)c3ccc(c(Cl)c3)Oc3cc2cc(c3O[C@@H]2O[C@H](CO)[C@@H](O)[C@H](O)[C@H]2O[C@H]2C[C@](C)(N)[C@H](O)[C@H](C)O2)Oc2ccc(cc2Cl)[C@H]1O [vancomycin] | < 1 µg/mL | – | – | high concentrations at which cell death of osteoblasts occurs [1]: 10,000 /mL
[Ag] [antimicrobial silver, silver] | – | – | – | time of release above MIC [2]: 40 days; released level (above MIC) ([2]; for 40 days): above 1 ug/mL
NC[C@H]1O[C@H](O[C@H]2[C@H](O)[C@@H](O[C@H]3O[C@H](CO)[C@@H](O)[C@H](N)[C@H]3O)[C@H](N)C[C@@H]2N)[C@H](N)C[C@@H]1O [Tobramycin, tobramycin] | < 200 µg/mL | – | – | higher concentrations at which replication decreases and eventually cell death occurs [1]: > 400 µg/mL
gentamicin | – | very little elution occurs | local cytotoxic effects | levels impeding 3H-thymidine levels [1]: > 100 mL⁻¹
teicoplanin | – | very little elution occurs | local cytotoxic effects | –
